The Bradley open melting point set (2014)

SMILES	melting point [°C]
OB(O)c1cccc(Oc2ccccc2)c1 [3-phenoxybenzeneboronic acid]	141
N#CCCc1ccccc1 [3-phenylpropionitrile]	-2
Cc1cccc(C(C)(C)C)c1 [3-tert-butyltoluene]	-41
CC(C)(C)c1ccc2c(c1)OCCOCCOc1cc(C(C)(C)C)ccc1OCCOCCO2 [4',4''(5'')-di-tert-butyldibenzo-18-crown-6]	110
CC(=O)c1ccc(C(F)(F)F)cc1 [4'-(trifluoromethyl)acetophenone]	32
CC(=O)Nc1ccc(Br)cc1OC(F)(F)F [4'-bromo-2'-(trifluoromethoxy)acetanilide]	136
CC(=O)Nc1ccc(Br)cc1C [4'-bromo-2'-methylacetanilide]	156
CC(=O)Nc1ccc(Cl)cc1C [4'-chloro-2'-methylacetanilide]	140
Clc1cc(-c2ccccn2)nc(-c2ccccn2)c1 [4'-chloro-2,2':6',2''-terpyridine]	150
CC(=O)c1ccc(Cl)cc1 [4'-chloroacetophenone]	19
COc1cc(C(C)=O)ccc1F [4'-fluoro-3'-methoxyacetophenone]	52
COc1cc(C(C)=O)ccc1O [4'-hydroxy-3'-methoxyacetophenone]	114
OC(c1ccc(Cl)cc1)(c1ccc(Cl)cc1)c1ccc(Cl)cc1 [4,4',4''-trichlorotrityl alcohol]	96
CC/C(=C(/CC)c1ccc(O)cc1)c1ccc(O)cc1 [4,4'-(3E)-Hex-3-ene-3,4-diyldiphenol]	170
ClC(Cl)=C(c1ccc(Cl)cc1)c1ccc(Cl)cc1 [4,4'-DDE]	89
Clc1ccc(C(c2ccc(Cl)cc2)C(Cl)(Cl)Cl)cc1 [4,4'-DDT]	110
Cc1ccc(CCc2ccc(C)cc2)cc1 [4,4'-Dimethylbibenzyl]	78
c1cc(-c2ccncc2)ccn1 [4,4'-bipyridine]	113
Cc1ccc(C)c(/C=C/c2ccc(-c3ccc(/C=C/c4cc(C)ccc4C)cc3)cc2)c1 [4,4'-bis(2,5-dimethylstyryl)biphenyl]	198
CC(=O)Oc1ccc(-c2ccc(OC(C)=O)cc2)cc1 [4,4'-diacetoxybiphenyl]	164
O=C(c1ccc(F)cc1)c1ccc(F)cc1 [4,4'-difluorobenzophenone]	108
Cc1ccc(-c2ccc(C)cc2)cc1 [4,4'-dimethylbiphenyl]	121
O=C(CC(=O)C(F)(F)F)c1ccco1 [4,4,4-trifluoro-1-(2-furyl)-1,3-butanedione]	21

SMILES	melting point [°C]
CC1(C)C(=O)OOC1=O [4,4-dimethyl-1,2-dioxolane-3,5-dione]	45
O=C1OC(=O)c2c(Cl)c(Cl)c(Cl)c(Cl)c21 [4,5,6,7-Tetrachloro-2-benzofuran-1,3-dione]	256
Brc1ccnc(-c2ccc(Br)nc2)c1 [4,6'-dibromo-2,3'-bipyridine]	129
CC1=CC(C)=NC2N=NC(N)=C12 (stereo not given) [4,6-Dimethyl-2H-pyrazolo[3,4-b]pyridin-3-amine]	280
Nc1c(Br)cc(Br)c(Cl)c1Cl [4,6-dibromo-2,3-dichloroaniline]	97
Oc1cc(O)c(Cl)cc1Cl [4,6-dichlororesorcinol]	115
C1=NN=C2CSCC12 (stereo not given) [4,6-dihydro-1H-thieno[3,4-c]pyrazole]	133
Clc1ccc2c(Cl)ccnc2c1 [4,7-dichloroquinoline]	85
CC(C)(C)C(=O)Nc1ccncc1 [4-(2,2,2-trimethylacetamido)pyridine]	136
CC(CC(=O)O)c1ccc(C(=O)O)cc1 (stereo not given) [4-(2-carboxy-1-methylethyl)benzoic acid]	225
O=C(O)CCc1ccc(B(O)O)cc1 [4-(2-carboxyethyl)benzeneboronic acid]	147
OCCN1CCOCC1 [4-(2-hydroxyethyl)morpholine]	2
Nc1ccc(-c2ccc3nn(-c4ccccc4)nc3c2)cc1 [4-(2-phenyl-2H-benzotriazol-5-yl)aniline]	143
Oc1ccc(-c2nccs2)cc1 [4-(2-thiazolyl)phenol]	164
O=C(c1ccncc1)c1ccc(Cl)cc1 [4-(4-chlorobenzoyl)pyridine]	108
COc1ccc(C=C2N=C(c3ccccc3)OC2=O)cc1 [4-(4-methoxybenzylidene)-2-phenyl-1,3-oxazol-5(4H)-one]	152
CCCN(CCC)S(=O)(=O)c1ccc(C(=O)O)cc1 [4-(Dipropylsulfamoyl)benzoic acid]	195
O=C(OCc1ccccc1)c1ccc(B(O)O)cc1 [4-(benzyloxycarbonyl)benzeneboronic acid]	190
OB(O)c1ccc(N(Cc2ccccc2)Cc2ccccc2)cc1 [4-(dibenzylamino)benzeneboronic acid]	186
CCOC(=O)c1ccc(N=C=O)cc1 [4-(ethoxycarbonyl)phenyl isocyanate]	30
COC(=O)c1ccc(B(O)O)cc1 [4-(methoxycarbonyl)benzeneboronic acid]	223
CNc1ccc(C(=O)O)cc1 [4-(methylamino)benzoic acid]	159
CS(=O)(=O)c1ccc(B(O)O)cc1 [4-(methylsulfonyl)benzeneboronic acid]	200

SMILES	melting point [°C]
O=C(O)Cc1ccc(OC(F)(F)F)cc1 [4-(trifluoromethoxy)phenylacetic acid]	87
Nc1ccc(C(F)(F)F)cc1 [4-(trifluoromethyl)aniline]	7
O=Cc1ccc(C(F)(F)F)cc1 [4-(trifluoromethyl)benzaldehyde] [listing 1 of 2 here]	1.5
O=Cc1ccc(C(F)(F)F)cc1 [4-(trifluoromethyl)benzaldehyde] [listing 2 of 2 here]	2
OB(O)c1ccc(C(F)(F)F)cc1 [4-(trifluoromethyl)benzeneboronic acid]	240
C=CCc1ccc(OC)c(OC)c1 [4-Allyl-1,2-dimethoxybenzene]	-4
Cc1noc(NS(=O)(=O)c2ccc(N)cc2)c1C [4-Amino-N-(3,4-dimethyl-1,2-oxazol-5-yl)benzenesulfonamide]	196
Nc1ccc(Br)cc1 [4-Bromoaniline]	64
O=C(O)c1ccc(Br)cc1 [4-Bromobenzoic acid]	253
Cc1cc(O)ccc1Cl [4-Chloro-3-methylphenol]	67
O=Cc1ccc(Cl)cc1 [4-Chlorobenzaldehyde]	46
ON=Cc1ccc(Cl)cc1 [4-Chlorobenzaldoxime]	101
Oc1ccc(Cl)c(O)c1 [4-Chlorobenzene-1,3-diol]	107
Oc1ccc(Cl)cc1 [4-Chlorophenol]	44
CCCCCCCc1ccc(C(=O)O)cc1 [4-Heptylbenzoic acid]	69.8
COc1cc(C=O)ccc1O [4-Hydroxy-3-methoxybenzaldehyde]	82
CC(=O)CC(C)(C)O [4-Hydroxy-4-methylpentan-2-one]	-50
Nc1ccc(I)cc1 [4-Iodoaniline]	61
COc1ccc(C(=O)O)cc1 [4-Methoxybenzoic acid]	184
Cc1ccc(N)c([N+](=O)[O-])c1 [4-Methyl-2-nitroaniline]	117
Cc1ccc(N)c(N)c1 [4-Methylbenzene-1,2-diamine]	89.5
Cc1ccc(S)c(S)c1 [4-Methylbenzene-1,2-dithiol]	31
Cc1ccc(C(=O)c2ccccc2)cc1 [4-Methylbenzophenone]	50

SMILES	melting point [°C]
Nc1ccc([N+](=O)[O-])cc1 [4-Nitroaniline]	148
CC(=O)Oc1ccc([N+](=O)[O-])cc1 [4-Nitrophenyl acetate]	78
O=[N+]([O-])c1ccc(OCCN2CCOCC2)cc1 [4-[2-(4-nitrophenoxy)ethyl]morpholine]	80
COc1ccccc1N1CCN(CCCC(=O)c2ccc(F)cc2)CC1 [4-[4-(o-Methoxyphenyl)-1-piperazinyl]-p-fluorobutyrophenone]	68
O=[N+]([O-])c1ccc(N=Nc2ccc(O)cc2O)cc1 [4-[(4-Nitrophenyl)diazenyl]benzene-1,3-diol]	200
CCCCCCCC(=O)Oc1ccc(/N=N/c2ccc(CCCC)cc2)cc1 [4-[(E)-(4-butylphenyl)diazenyl]phenyl octanoate]	64
CN(CCCC(=O)c1cccnc1)N=O [4-[Methyl(nitroso)amino]-1-(pyridin-3-yl)butan-1-one]	72
CC(=O)Nc1ccc(C(=O)O)cc1 [4-acetamidobenzoic acid]	260
CC(=O)c1cnn(-c2ccccc2)c1C [4-acetyl-5-methyl-1-phenyl-1h-pyrazole]	104
CC(=O)c1ccc(N=C=S)cc1 [4-acetylphenyl isothiocyanate]	79
Nc1nc(O)nc2c1cnn2CCO [4-amino-1-(2-hydroxyethyl)-1H-pyrazolo[3,4-d]pyrimidin-6-ol]	308
Nc1ccc(-c2ccccc2)cc1 [4-aminobiphenyl]	54
N#Cc1cncnc1N [4-aminopyrimidine-5-carbonitrile]	255
C=Cc1ccc(N)cc1 [4-aminostyrene]	24
c1ccc(Cc2ccc(-c3ccccc3)cc2)cc1 [4-benzylbiphenyl]	86
Fc1cc(OCc2ccccc2)ccc1Br [4-benzyloxy-1-bromo-2-fluorobenzene]	34
O=C(O)c1ccc(OCc2ccccc2)cc1F [4-benzyloxy-2-fluorobenzoic acid]	167
c1ccc(CC2CCNCC2)cc1 [4-benzylpiperidine]	7
OCc1ccc(-c2ccccc2)cc1 [4-biphenylmethanol]	46
Cc1cc(Br)ccc1N=C=S [4-bromo-2-methylphenyl isothiocyanate]	45
CN(C)c1ccc(Br)cc1 [4-bromo-n,n-dimethylaniline]	55
